“And” between values parts separate entries of the source, which are not always exact repeats. Equal values may be shown once. Numbers after ± are expanded uncertainties.
Assay: refractive index (Na D-line) (dimensionless); wn = mass fraction of the nth substance listed
Conditions: 298.15 K; 84.5 kPa; Liquid; Standard Abbe refractometry; w1 = 0.02

Row | Compound | refractive index
1 | CCCCn1cc[n+](C)c1.F[B-](F)(F)F [1-butyl-3-methylimidazolium tetrafluoroborate] + O | 1.3339 ± 0.00055 and 1.33393 ± 0.00055 and 1.33391 ± 0.00055
2 | O=C[C@H](O)[C@@H](O)[C@H](O)[C@H](O)CO [D-glucose] + O | 1.33529 ± 0.00055
3 | O=C(CO)[C@@H](O)[C@H](O)[C@H](O)CO [D-fructose] + O | 1.33525 ± 0.00055

More lines, now with the values ahead:

Row | refractive index | Compound
4 | 1.33518 ± 0.00055 | OC[C@H]1O[C@@](CO)(O[C@H]2O[C@H](CO)[C@@H](O)[C@H](O)[C@H]2O)[C@@H](O)[C@@H]1O [D-sucrose] + O
5 | 1.33523 ± 0.00055 | O=C[C@H](O)[C@@H](O)[C@@H](O)CO [L-arabinose] + O
